The record followed here is ChEMBL document CHEMBL3352417, “Confronting the challenges of discovery of novel antibacterial agents” (Bioorg Med Chem Lett, 2014).

Converted amounts (≈) assume the structure as drawn.

Broadly, the IC50 is the point on the concentration scale where inhibition reaches its midpoint. In general, MIC90 refers to an inhibitory concentration at the 90% level, which refers to growth in some studies and to a panel of isolates in others. A lower MIC90 goes with higher susceptibility.

Assay [1] in a line: Inhibition of Enterococcus faecalis DNA gyrase subunit B.
The nature of assay [2]: Inhibition of Enterococcus faecalis ParE.
For a further assay, the system named is Staphylococcus aureus. As to the kind of experiment: Antimicrobial activity against Staphylococcus aureus. It is filed as functional.
A further assay has as its system Streptococcus pneumoniae. As to the kind of experiment: Antimicrobial activity against Streptococcus pneumoniae. It is filed as functional.
The target in assay [3] is Voltage-gated inwardly rectifying potassium channel KCNH2 (Homo sapiens, UniProt Q12809). Put plainly: Inhibition of human ERG.
Voltage-gated inwardly rectifying potassium channel KCNH2, sequence (Q12809 whole entry): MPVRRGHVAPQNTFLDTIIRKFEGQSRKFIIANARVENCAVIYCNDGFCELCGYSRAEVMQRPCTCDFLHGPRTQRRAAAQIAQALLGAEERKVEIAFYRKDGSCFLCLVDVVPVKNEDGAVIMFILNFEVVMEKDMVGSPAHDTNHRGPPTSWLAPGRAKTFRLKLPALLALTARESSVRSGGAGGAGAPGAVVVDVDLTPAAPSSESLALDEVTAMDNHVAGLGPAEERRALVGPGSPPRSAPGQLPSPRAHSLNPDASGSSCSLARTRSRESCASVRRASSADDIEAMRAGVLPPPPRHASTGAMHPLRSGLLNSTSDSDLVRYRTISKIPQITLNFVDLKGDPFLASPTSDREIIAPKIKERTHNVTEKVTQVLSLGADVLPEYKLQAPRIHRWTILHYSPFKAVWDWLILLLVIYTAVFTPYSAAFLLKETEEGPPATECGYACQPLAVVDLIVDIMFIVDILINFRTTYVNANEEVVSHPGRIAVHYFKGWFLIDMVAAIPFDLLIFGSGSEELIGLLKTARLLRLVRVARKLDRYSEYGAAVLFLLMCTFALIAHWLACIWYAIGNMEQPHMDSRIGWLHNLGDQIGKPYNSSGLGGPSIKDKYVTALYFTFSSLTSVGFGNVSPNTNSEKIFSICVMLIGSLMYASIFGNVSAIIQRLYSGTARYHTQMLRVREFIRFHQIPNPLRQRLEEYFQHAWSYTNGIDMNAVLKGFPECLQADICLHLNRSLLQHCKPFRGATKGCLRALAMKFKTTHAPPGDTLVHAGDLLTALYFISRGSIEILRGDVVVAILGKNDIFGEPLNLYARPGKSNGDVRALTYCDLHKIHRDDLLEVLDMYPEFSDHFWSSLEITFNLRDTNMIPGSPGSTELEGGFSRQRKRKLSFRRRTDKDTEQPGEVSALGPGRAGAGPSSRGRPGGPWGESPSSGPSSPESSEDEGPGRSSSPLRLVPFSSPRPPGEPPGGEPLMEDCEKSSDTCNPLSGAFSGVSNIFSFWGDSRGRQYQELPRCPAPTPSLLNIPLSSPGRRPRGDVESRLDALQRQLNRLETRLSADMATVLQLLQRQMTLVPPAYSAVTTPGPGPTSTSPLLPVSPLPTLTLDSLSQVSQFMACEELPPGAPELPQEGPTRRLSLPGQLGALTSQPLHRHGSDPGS
A short description of assay [4]: Inhibition of beta-lactamase (unknown origin).

Take `CNc1cc(F)cc2c1[nH]c1nc(Oc3cnc(C)nc3)nc(N3CC4[C@H](N)C[C@]4(C)C3)c12` (stereo partly specified): the IC50 in assay [1] and in assay [2] was below 0.0003 µM in each case.
For `O=c1ccc2ncc(=O)n3c2n1C[C@H]3CN1CCC(NCc2cc3c(cn2)OCCC3)CC1` [GEPOTIDACIN], the MIC90 turned out to be 0.5 µg/mL (≈ 1.11 µM) in the assay with Staphylococcus aureus and 0.25 µg/mL (≈ 0.557 µM) against Streptococcus pneumoniae. Also, the IC50 in assay [3] worked out at 1400 µM.
Regarding `O=C(O)C[C@@H]1CC[C@H](NC(=O)Cc2cccs2)B(O)O1` [VABORBACTAM], in assay [4], the IC50 worked out at 0.009 µM.
